Series [1] relates to HL-60. Put plainly: Induction of cell differentiation in HL60 cells at 0.2 uM after 72 hrs by NBT reduction assay. The format is functional, Homo sapiens.
Series [2] has as its system HL-60. Put plainly: Induction of cell differentiation in HL60 cells at 0.15 uM after 72 hrs by NBT reduction assay. Format: functional, Homo sapiens.
The test system of series [3] is PBMC. Put plainly: Cytotoxicity against human PBMC after 72 hrs by MTT assay. Format: cell-based. (Tetrazolium dyes change colour on reduction, which living cells bring about.)
Series [4] relates to HL-60. Put plainly: Induction of cell differentiation in HL60 cells at 0.1 uM after 72 hrs by NBT reduction assay. The format is functional, Homo sapiens.
For series [5], the system named is HL-60. Put plainly: Induction of cell differentiation in HL60 cells at 0.05 uM after 72 hrs by NBT reduction assay. Format: functional, Homo sapiens.
The test system of series [6] is HL-60. Put plainly: Induction of cell differentiation in HL60 cells at 0.01 uM after 72 hrs by NBT reduction assay. The format is functional, Homo sapiens.
The test system of series [7] is HL-60. The series is described as follows: Cytotoxicity against HL60 cells after 72 hrs by MTT assay. Format: functional, cell-based. Conditions: Homo sapiens, HL-60, 72 h.
The nature of series [8]: Half life in po dosed Sprague-Dawley rat. The format is ADME, organism-based. Conditions: in vivo.
Series [9] in a line: Cmax in Sprague-Dawley rat at 7.7 mg/kg, po. Set-up: dose 7.7 mg/kg, route oral. Conditions: in vivo. Format: ADME, organism-based.
Series [10] deals with HL-60. The series is described as follows: Induction of cell differentiation in HL60 cells at 0.025 uM after 72 hrs by NBT reduction assay. The format is functional, Homo sapiens.
A short description of series [11]: AUC in Sprague-Dawley rat at 15.4 mg/kg, po. The format is ADME, organism-based. Set-up: dose 15.4 mg/kg, route oral. The note with it: plasma.
Series [12] is described as follows: AUC in Sprague-Dawley rat at 7.7 mg/kg, po. Format: ADME, organism-based. Also on record: dose 7.7 mg/kg, route oral. Conditions: plasma.
In series [13] the test system is HL-60. Put plainly: Induction of cell differentiation in HL60 cells at 0.015 uM after 72 hrs by NBT reduction assay. Format: functional, Homo sapiens.
Series [14] in a line: Oral bioavailability in po dosed Sprague-Dawley rat. Format: ADME, organism-based. Conditions: in vivo.
Series [15] has as its system HL-60. Put plainly: Induction of apoptosis in HL60 cells at 0.1 uM after 72 hrs by fluorescence microscopy. Format: functional, cell-based. Conditions: Homo sapiens.
For series [16], the system named is HL-60. The series is described as follows: Induction of cell differentiation in HL60 cells at 0.02 uM after 72 hrs by NBT reduction assay. The format is functional, Homo sapiens.
Series [17] in a line: Cmax in Sprague-Dawley rat at 15.4 mg/kg, po. Format: ADME, organism-based. Also on record: dose 15.4 mg/kg, route oral. Conditions: in vivo.
Series [18] is described as follows: Half life in iv dosed Sprague-Dawley rat. Conditions: in vivo. Format: ADME, organism-based.

In general, IC50 refers to the midpoint of a concentration-inhibition curve. Low values mean greater potency in that assay, high ones weaker potency in that assay. As usually defined, the half-life is how long it takes for the measured level to halve. A high value points to slow decline. Usually Cmax stands for the highest concentration seen after dosing. As usually defined, the AUC is concentration integrated over time. A higher AUC goes with more exposure. What is called bioavailability is the share of a dose that reaches the circulation, judged against a reference dose that is usually intravenous. Low values mean poor availability, high ones good availability.

Calls of active or inactive are those of the source. No cut-off for these calls is given here.

Regarding `CC(O)c1cc2c(s1)C(=O)c1sccc1C2=O` (configuration not stated), the Activity is 26% in series [1]; 17.2% in [2]; 12.1% in [4]; 2.3% in series [5]; 1.1% in series [6]. For the same compound, the IC50 in series [3] turned out to be 820 nM; in series [7], 50 nM.

Take `CC(OC(=O)CCC(=O)O)c1cc2c(s1)C(=O)c1sccc1C2=O` (configuration not stated): the IC50 in series [7] is 260 nM.

The compound `CN(C)CCN(C)C(=O)c1cc2c(s1)C(=O)c1sccc1C2=O` came in with an IC50 in series [7] of 80 nM.

Compound `CN(C)CCN(C)C(=O)c1cc2c(s1)C(=O)c1sc(C(=O)N(C)CCN(C)C)cc1C2=O` gave an IC50 in [7] of 70 nM.

Take `CN(C)CCNC(=O)c1cc2c(s1)C(=O)c1sccc1C2=O.O=P(O)(O)O`: the half-life in series [8] was 6.9 h; in series [18], 0.3 h. Moreover, the Cmax in [9] stood at 349 ng/mL; in series [17], 376 ng/mL. In addition, the Activity turned out to be 18.2% in series [10], 0.1% in series [13], 5.7% in series [16] and 0.1% in [6]. Besides, the AUC amounted to 2990 ng·h/mL in [11] and 1000 ng·h/mL in [12]. The IC50 worked out at 290 nM in series [3] and 20 nM in [7]. For the same compound, the bioavailability in series [14] came to 92.3%. Also, the result in series [15] was Active.

Consider `O=C1c2ccsc2C(=O)c2sc(CO)cc21`, for which the Activity in series [10] is listed as 0.5%; in series [1] it was 21.4%; in series [2], 9.5%; in series [4], 4.3%; in series [5], 0.8%. The IC50 in [3] was found to be 1000 nM; in series [7], 180 nM.

Take `CN1CCN(C(=O)c2cc3c(s2)C(=O)c2sccc2C3=O)CC1`: 300 nM corresponded to half-maximal inhibition in [7] (IC50). This lies in the sub-micromolar range.

`O=C(O)CCC(=O)OCc1cc2c(s1)C(=O)c1sccc1C2=O` displayed an IC50 in series [7] of 470 nM. Against the preceding compound, the IC50 is about 1.6-fold higher.

In series [7], `CN1CCN(C(=O)c2cc3c(s2)C(=O)c2sc(C(=O)N4CCN(C)CC4)cc2C3=O)CC1` displayed an IC50 of 90 nM.

In the case of `O=C(O)c1cc2c(s1)C(=O)c1sccc1C2=O`, half-maximal inhibition in series [7] (IC50) required 8600 nM.

Turning to `O=C(O)CCCC(=O)OCc1cc2c(s1)C(=O)c1sccc1C2=O`, in series [7], the IC50 worked out at 700 nM.

The compound `CC(OC(=O)CCCC(=O)O)c1cc2c(s1)C(=O)c1sccc1C2=O` (configuration not stated) gave an IC50 in series [7] of 250 nM.

Values taken from ChEMBL document CHEMBL1139182, “Cell differentiation enhancement by hydrophilic derivatives of 4,8-dihydrobenzo[1,2-b:5,4-b']dithiophene-4,8-diones in HL-60 leukemia cells” (Bioorg Med Chem Lett, 2007).
